Columns and labels:
[1] = system: FXa/ATIII inhibited by fondaparinux; assay: In vitro FXa/ATIII enzymatic assay of anti-fondaparinux activity; assay type: biochemical, human; conditions: for Percent recovery of peptide substrate hydrolysis: [fond] = [antidote] = 15 μM, three reaction times
Procedure: The activity of two spermine derivatives, 3AC and 3FF, as fond antidotes was evaluated with an in vitro enzymatic assay related to blood coagulation, as previously described (Figure A). , In brief, fond promotes a conformational change in ATIII toward an efficient inhibitor of FXa. Addition of a ligand of fond hinders the inhibitory action of ATIII restoring the FXa hydrolytic activity, which has been used as an indirect measurement of antifond behavior.
Recombinant antithrombin III and coagulation factor Xa were obtained from two different kits, Berichrom Heparin test (SIEMENS) and Kinetichrome Anti-Xa Heparin kit (Iduron). Methods for both kits are similar, but not identical. Differences will be spotted by method A (SIEMENS) and method B (Iduron). Following the manufacturer’s instructions, stock solutions were prepared as follows: human antithrombin III (1 IU/mL) and factor Xa reagent (0.4 μg/mL, human plasma fraction with additives Tris, sodium chloride, and EDTA). Chromogenic substrate specific for factor Xa was dissolved at 4 mM concentration (A: Z-D-Leu-Gly-Arg-ANBA-methyl amide, and B: Z-D-Arg-Gly-Arg-pNA). Additionally, either 4-nitroaniline (A) or N-Boc-4-nitroaniline (B) was added to the substrate solution at a concentration of 1.6 mM and used as an internal standard to quantify the hydrolysis of the chromogenic substrate. All compounds were dissolved in Milli-Q water at the desired stock concentrations prior to start of the assays and kept at 4 °C. Various concentrations of the ligand, fondaparinux (up to 15 μM) or LMWH (0.1 to 10 μM), human antithrombin III solution (2 μL), and factor Xa reagent solution (35 μL) were consecutively added to an Eppendorf vial and brought to a total volume of 145 μL. Then, 20 μL of reagent substrate solution was added to start the experiment, and the mixture was vigorously shaken at 25 °C. 20 μL aliquots were taken at 5/10/15/20/30/50/80/120 minutes, diluted with 40 μL of acetic acid (20% v/v), and injected into the analytical HPLC system. The gradient ranged from 5% of ACN (0.1% formic acid) in water (0.1% formic acid) to 100% of ACN in 24 min using a 15 × 4.6 mm KROMAPHASE C18 5.0 μm column. In A: the retention time of cleaved chromophore was 9.1 min, retention time of chromogenic substrate was 13.9 min, and retention time of 4-nitroaniline was 15.4 min. In B: the retention time of chromogenic substrate was 11.0 min, retention time of cleaved chromophore was 15.2 min, and retention time of N-Boc-4-nitroaniline was 21.7 min. FXa/ATIII activity was represented as the percent of hydrolysis, which was calculated from the normalized area of the cleaved peptide at 405 nm at each corresponding time point. The experiment carried out in the absence of heparinoid was considered as the maximum of activity, while the experiment with heparinoid and no ligand was considered as negative control (maximum inhibition of FXa by heparinoid). The concentration of heparinoid was selected for the measurement to render significant inhibition within experimental time while allowing the reaction to proceed.

[2] = system: freshly extracted mouse blood; assay: Naked-eye ex vivo blood coagulation assay; assay type: cell-based; conditions: for Reversal of fond anticoagulant effect (clot formation by vial inversion): 100 μM fond + 200 μM antidote, 5 min
Procedure: Considering the results obtained in the in vitro assays, we aimed to test our molecules in a more relevant and challenging environment. To this aim, we performed naked-eye ex vivo coagulation assays (Figure ). Freshly extracted mouse blood samples were treated with fond (100 μM final concentration) in the absence and in the presence of different antidotes (two molar equivalents). Blood coagulation was visually inspected by the simple inversion of the vials. For a fair comparison between different series, all of the experiments were done in parallel with the corresponding control samples of untreated mouse blood (labeled “0” in Figure ). […] The effect of antidotes alone on blood coagulation was also tested (Figure B), showing that neither of the three small molecules appreciably changed the coagulation properties.
This naked-eye coagulation test is an adaptation of the whole blood clotting time assay. , Freshly collected mouse blood was directly used without further treatment. 300 μL aliquots were dispensed in Eppendorf tubes, to which fondaparinux (100 μM), and/or potential antidotes (3AC, 3FF, ciraparantag, or protamine, 200 μM) were added, and a picture was taken after 5 min. Clot formation was verified by inverting the Eppendorf vials.

In the case of COc1ccccc1CNCCCNCCCCNCCCNCc1ccccc1OC [Compound 3BB], the “Percent recovery of peptide substrate hydrolysis” value (from here on “Percent recovery”) [1] is reported as “lower potency as antidotes”.

In the case of CO[C@H]1O[C@H](COS(=O)(=O)O)[C@@H](O[C@@H]2O[C@@H](C(=O)O)[C@@H](O[C@H]3O[C@H](COS(=O)(=O)O)[C@@H](O[C@@H]4O[C@H](C(=O)O)[C@@H](O[C@H]5O[C@H](COS(=O)(=O)O)[C@@H](O)[C@H](O)[C@H]5NS(=O)(=O)O)[C@H](O)[C@H]4O)[C@H](OS(=O)(=O)O)[C@H]3NS(=O)(=O)O)[C@H](O)[C@H]2OS(=O)(=O)O)[C@H](O)[C@H]1NS(=O)(=O)O [fond, Fondaparinux], the “Effect on FXa hydrolytic activity” value ([1]; fond 15 μM, FXa/ATIII, no antidote) is reported as “clearly reduces the hydrolytic activity” and the “Effect on blood coagulation (vial inversion)” value ([2]; fond 100 μM alone) is reported as “anticoagulant effect”.

N=C(N)NCCC[C@H](N)C(=O)NCCCN1CCN(CCCNC(=O)[C@@H](N)CCCNC(=N)N)CC1 [cir, ciraparantag, reference compound] was tested, and the “Percent recovery” value [1] was “performs similarly to the spermine derivative ligand (3AA)” and the “Reversal of fond anticoagulant effect (clot formation by vial inversion)” value [2] was “good antidote, though qualitatively less effective than 3AC/3FF”.

Oc1ccccc1CNCCCNCCCCNCCCNCc1ccccc1O [Compound 3AA] was tested, and the “Percent recovery” value [1] was “lower potency as antidotes”.

In the case of protamine, the “Percent recovery” value [1] is reported as “practically no in vitro activity against fond”, the “Reversal of fond anticoagulant effect (clot formation by vial inversion)” value [2] is reported as “fails to be an antidote of fond” and the “Effect of antidote alone on blood coagulation” value ([2]; 200 μM antidote, no fond) is reported as “acts as an anticoagulant itself”.

— article PMC12070314, “Efficient Small-Molecule Reversal Agents for Anticoagulant Fondaparinux” (ACS Pharmacology & Translational Science, 2025)
